Measurements reported in patent publication US20070148211A1, “PROCESSES FOR MAKING PARTICLE-BASED PHARMACEUTICAL FORMULATIONS FOR ORAL ADMINISTRATION” (Acusphere, Inc., priority 2005, published 2007).

Assay: Visual evaluation of dispersibility of celecoxib powders after reconstitution in 0.01N HCl
Format: physicochemical
Method: The unprocessed celecoxib, the blended celecoxib, and the jet milled blended celecoxib were analyzed using visual inspection and by light microscopy (performed on a hemacytometer slide) following reconstitution in 0.01N HCl. FIGS. 5A, 5B, and 5C show the particles of the bulk celecoxib, the blended powder, and the jet-milled blended powder, respectively. The quality of the suspensions are described in Table 2.

SMILES: Cc1ccc(-c2cc(C(F)(F)F)nn2-c2ccc(S(N)(=O)=O)cc2)cc1 [Celecoxib/no blending or jet milling, celecoxib]
- Visual Evaluation of Suspension: Poor suspension containing many
